Data taken from patent US20250009707A1, “METHODS OF INDUCING KETOSIS IN NON-HUMAN MAMMALS” (BOPZ Nutrition Ltd., priority 2023, published 2025).

What was measured:
[1] = Tolerability in fed canines, gastric gavage (Example 2); assay type: in vivo
Procedure: (§1) A group of 6 beagles was evaluated per tested compound of the disclosure. In a first period, the canines were administered 250 mg/kg of C8-BHB. In a second period, the canines were administered 500 mg/kg of C8-BHB. In a third period, the canines were administered MCT at a dose of 5.5%. In a fourth period, the canines were administered 125 mg/kg of C8-BHB. A washout period of 7 days was provided between each of the first, second, third, and fourth periods.
(§2) Following the tolerability results of Example 1, the canines were fed, and the compound was administered by gastric gavage in subsequent examples.
(§3) In each of the first, second, third, and fourth period, pathology samples were taken prior to administration of the compound, then at minute 20, 60, 90, 120, 180, 240, and 300.
(§4) If emesis occurred 60 minutes from administration of the compound, serum BHB content was not analyzed.

[2] = Tolerability (emesis) in fasted canines, sublingual gavage (Example 1); assay type: in vivo; conditions: 250 mg/kg
Procedure: Example 1 provides a method by which compounds of the disclosure were evaluated in a first study, wherein dogs were fasted and the compounds were administered by sublingual gavage.
In a first period, a group of 12 canines (beagles) were administered 5.5% MCT in a first period, and 250 mg/kg C8-BHB in a second period. A 7 day washout period was provided between the first and second periods.
The canines were fasted, and the C8-BHB or MCTs was administered by sublingual gavage.
as §3
Where emesis occurred before 60 minutes from dosing, serum BHB content was not analyzed.
Where emesis occurred at or after 60 minutes from dosing and before 300 minutes from dosing, Cmax was calculated but AUC was not calculated.

[3] = Serum/plasma BHB in fed canines, gastric gavage (Examples 2-4); assay type: in vivo, canines (beagles); conditions: 500 mg/kg
Procedure: Ketosis may be assessed quantitatively by measuring plasma beta-hydroxybutyrate (BHB) concentrations. Methods of measuring plasma BHB concentrations are known in the art. Non-limiting exemplary methods for measuring plasma BHB concentrations are provided in U.S. Pat. No. 10,562,839, which is hereby incorporated by reference in its entirety. Plasma BHB levels may be determined by a colorimetric enzymatic assay (Stanbio Laboratory 2440-058).
as §1, §2
In each of the first, second, third, and fourth period, serum was sampled prior to administration of the compound, then at minute 15, 30, 45, 60, 75, 90, 120, 180, 240, and 300. Serum was sampled for BHB analysis.
as §4
C8-BHB and C8×2-BD were selected as exemplary compounds of the disclosure for administration to canines according to the method of Example 2. Each exemplary compound was administered to 6 canines.
To further evaluate the potential of the compounds of the disclosure for inducing ketosis in canines, the compounds and MCTs were administered to the same canines, as described in Example 2.

| Structure (SMILES) | Tolerability compared to MCTs (FIGS. 2A-D) ([1]; fed canines, gastric gavage, doses of 125, 250 and 500 mg/kg) | Canines tolerating the substance ([1]; fed state, overall) [%] | Tolerability compared to MCTs (FIG. 1B) [2] | BHB Cmax [3] [mM] | BHB Tmax [3] [min] |
| --- | --- | --- | --- | --- | --- |
| CCCCCCCC(=O)O[C@H](C)CC(=O)OCC [C8-BHB, octanoyl-ethyl-3-hydroxybutyrate] | improved tolerability | 83 | better tolerated | 1.00 | 51 |
| CCCCCCCC(=O)OCC[C@@H](C)OC(=O)CCCCCCC [C8×2-BD, bis-octanoyl-1,3-butanediol] |  |  |  | 0.70 | 57 |
